Reference: patent publication US7709498B2, “Quinoline derivatives as antibacterial agents” (Janssen Pharmaceutica N.V., priority 2005, dated 2010)
≈ marks a conversion by molar mass, not a printed value.

What was measured:
Assay type in all cases: cell-based
[1] = tested on: Listeria monocytogenes (ATCC49594); test: Microtitre plate assay, IC90 determination, LMO 49594; details: 90% inhibitory concentration for bacterial growth, 37° C., resazurin fluorescence; for IC90: Listeria monocytogenes, ATCC49594, 24 h, read-out: IC90 (μg/ml) LMO 49594; for IC90 (μg/ml) LMO 49594: 24 hours
Experimental: (§1) The bacteria used in this study were grown overnight in flasks containing 100 ml Mueller-Hinton Broth (Becton Dickinson—cat. no. 275730) in sterile de-ionized water, with shaking, at 37° C. Stocks (0.5 ml/tube) were stored at −70° C. until use. Bacteria titrations were performed in microtiter plates to detect the TCID50, in which the TCID50 represents the dilution that gives rise to bacterial growth in 50% of inoculated cultures.
(§2) In general, an inoculum level of approximately 100 TCID50 was used for susceptibility testing.
(§3) Flat-bottom, sterile 96-well plastic microtiter plates were filled with 180 μl of sterile deionized water, supplemented with 0.25% BSA. Subsequently, stock solutions (7.8× final test concentration) of compounds were added in 45 μl volumes in column 2. Serial five-fold dilutions (45 μl in 180 μl) were made directly in the microtiter plates from column 2 to reach column 11. Untreated control samples with (column 1) and without (column 12) inoculum were included in each microtiter plate. Depending on the bacteria type, approximately 10 to 60 CFU per well of bacteria inoculum (100 TCID50), in a volume of 100 μl in 2.8× Mueller-Hinton broth medium, was added to the rows A to H, except column 12. The same volume of broth medium without inoculum was added to column 12 in row A to H. The cultures were incubated at 37° C. for 24 hours under a normal atmosphere (incubator with open air valve and continuous ventilation). At the end of incubation, one day after inoculation, the bacterial growth was quantitated fluorometrically. Therefore resazurin (0.6 mg/ml) was added in a volume of 20 μl to all wells 3 hours after inoculation, and the plates were re-incubated overnight. A change in colour from blue to pink indicated the growth of bacteria. The fluorescence was read in a computer-controlled fluorometer (Cytofluor Biosearch) at an excitation wavelength of 530 nm and an emission wavelength of 590 nm. The % growth inhibition achieved by the compounds was calculated according to standard methods. The IC90 (expressed in μg/ml) was defined as the 90% inhibitory concentration for bacterial growth.
(§4) BSU 3639 means Bacillus subtilis (ATCC43639); ECO 25922 means Escherichia coli (ATCC25922); EFA 14506 means Enterococcus faecalis (ATCC14506); EFA 29212 means Enterococcus faecalis (ATCC29212); LMO 49594 means Listeria monocytogenes (ATCC49594); PAE 27853 means Pseudomonas aeruginosa (ATCC27853); SMU 33402 means Streptococcus mutans (ATCC33402); SPN 6305 means Streptococcus pneumoniae (ATCC6305); SPY 8668 means Streptococcus pyogens (ATCC8668); STA 43300 means Staphylococcus aureus (ATCC43300); STA 25923 means Staphylococcus aureus (ATCC25923); STA 29213 means Staphylococcus aureus (ATCC29213); STA RMETH means methicilline resistant Staphylococcus aureus (MRSA) (a clinical isolate from the University of Antwerp). ATCC means American type tissue culture.

[2] = tested on: Streptococcus pneumoniae (ATCC6305); test: Microtitre plate assay, IC90 determination, SPN 6305; details: 90% inhibitory concentration for bacterial growth, 37° C., resazurin fluorescence; for IC90: Streptococcus pneumoniae, ATCC6305, 24 h, read-out: IC90 (μg/ml) SPN 6305; for IC90 (μg/ml) SPN 6305: 24 hours
Experimental: as §1, §2, §3, §4

[3] = tested on: Streptococcus mutans (ATCC33402); test: Microtitre plate assay, IC90 determination, SMU 33402; details: 90% inhibitory concentration for bacterial growth, 37° C., resazurin fluorescence; for IC90: Streptococcus mutans, ATCC33402, 24 h, read-out: IC90 (μg/ml) SMU 33402; for IC90 (μg/ml) SMU 33402: 24 hours
Experimental: as §1, §2, §3, §4

[4] = tested on: Streptococcus pyogens (ATCC8668); test: Microtitre plate assay, IC90 determination, SPY 8668; details: 90% inhibitory concentration for bacterial growth, 37° C., resazurin fluorescence; for IC90 (μg/ml) SPY 8668: 24 hours; for IC90: Streptococcus, ATCC8668, 24 h, read-out: IC90 (μg/ml) SPY 8668
Experimental: as §1, §2, §3, §4

SMILES	IC90 [2] [µg/mL]	IC90 (μg/ml) SPN 6305 [2] [µg/mL]	also measured
COc1nc2ccc(-c3ccco3)cc2cc1C(c1ccccc1)C(O)(CCN(C)C)c1cccc2ccccc12 (centres unmarked) [Compound H]	13.6 (≈ 25.1 µM)	–	IC90 [1]: 13.6 µg/mL (≈ 25.1 µM)
COc1nc2ccc(Br)cc2cc1C(c1ccccc1)C(O)(CCN(C)C)c1cc(F)ccc1F (centres unmarked) [Compound 67]	13.6 (≈ 25.1 µM)	–	IC90 [1]: 10.8 µg/mL (≈ 19.9 µM)
COc1nc2ccc(Br)cc2cc1C(c1ccccc1)C(O)(CCn1cncn1)c1ccccc1 (racemic) [Compound 53]	–	5.9 (≈ 11.1 µM)	–
COc1nc2ccc(Br)cc2cc1C(c1ccccc1)C(O)(CCN(C)C)c1ccc2c3c(cccc13)CC2 (centres unmarked) [Compound I]	11.6 (≈ 19.9 µM)	–	–
COc1nc2ccc(Br)cc2cc1C(c1ccccc1)C(O)(CCN(C)C)c1ccc2c(Br)cccc2c1 (centres unmarked) [Compound 130]	–	–	IC90 [3]: 10.1 µg/mL (≈ 15.9 µM)
COc1nc2ccc(Br)cc2cc1C(c1ccccc1)C(O)(CCN(C)C)c1cc(F)cc(F)c1 (centres unmarked) [Compound 116]	–	–	IC90 [1]: 10.8 µg/mL (≈ 19.9 µM)
COc1nc2ccc(Br)cc2cc1C(c1ccccc1)C(O)(CCN1CCCC1)c1ccc2ccccc2c1 (racemic) [Compound 171]	–	–	IC90 (μg/ml) SPY 8668 [4]: 11.6 µg/mL (≈ 19.9 µM)
COc1nc2ccc(Br)cc2cc1C(c1ccccc1)C(O)(CCN1CCCCC1)c1ccc2ccccc2c1 (centres unmarked) [Compound 129]	15 (≈ 25.2 µM)	–	IC90 [3]: 11.9 µg/mL (≈ 20 µM); IC90 [4]: 11.9 µg/mL (≈ 20 µM)
COc1nc2ccc(-c3ccco3)cc2cc1C(c1ccccc1)C(O)(CCN(C)C)c1cccc(F)c1 (centres unmarked) [Compound 174]	–	–	IC90 [1]: 10.2 µg/mL (≈ 20 µM)
CCN(CCC(O)(c1ccc(F)cc1F)C(c1ccccc1)c1cc2cc(Br)ccc2nc1OC)Cc1ccccc1 (racemic) [Compound C]	–	15.9 (≈ 25.2 µM)	–
COc1nc2ccc(Br)cc2cc1C(c1ccccc1)C(O)(CCN1CCCCC1)c1ccc2cc(Br)ccc2c1 (centres unmarked) [Compound 166]	16.9 (≈ 25.1 µM)	–	–
COc1nc2cc(C)c(C)cc2cc1C(c1ccccc1)C(O)(CCN(C)C)c1cccc2ccccc12 (racemic) [Compound 229]	–	5.0 (≈ 9.91 µM)	IC90 (μg/ml) SMU 33402 [3]: 22.5 µg/mL (≈ 44.6 µM)
COc1nc2ccc(Br)cc2cc1C(c1ccccc1)C(O)(CCN(C)C)c1cccc(F)c1F (centres unmarked) [Compound 113]	13.6 (≈ 25.1 µM)	–	IC90 [1]: 10.8 µg/mL (≈ 19.9 µM)
CCOc1nc2ccc(Br)cc2cc1C(c1ccccc1)C(O)(CCN(C)C)c1ccccc1 (centres unmarked) [Compound 5]	–	–	IC90 (μg/ml) SMU 33402 [3]: 10.4 µg/mL (≈ 20 µM)
COc1nc2ccc(Br)cc2cc1C(c1ccccc1)C(O)(CCN(C)C)c1ccc2c(c1)OCCO2 (centres unmarked) [Compound 78]	–	11.2 (≈ 19.9 µM)	IC90 [3]: 11.2 µg/mL (≈ 19.9 µM); IC90 [4]: 11.2 µg/mL (≈ 19.9 µM)
COc1nc2ccc(Br)cc2cc1C(c1ccccc1)C(O)(CCN(C)C)c1ccc(Cl)cc1 (centres unmarked) [Compound 17]	0.5 (≈ 0.926 µM)	–	IC90 [1]: 10.8 µg/mL (≈ 20 µM)
CCN(CC)CCC(O)(c1ccccc1)C(c1ccccc1)c1cc2cc(Br)ccc2nc1OC (centres unmarked) [Compound 19]	–	13.4 (≈ 25.1 µM)	–
COc1nc2ccc(Br)cc2cc1C(c1ccc(C)cc1)C(O)(CCN(C)C)c1cccc2ccccc12 (centres unmarked) [Compound 72]	14.3 (≈ 25.1 µM)	–	IC90 [3]: 9 µg/mL (≈ 15.8 µM); IC90 [4]: 11.4 µg/mL (≈ 20 µM)
COc1ccc2cc(C(O)(CCN(C)C)C(c3ccccc3)c3cc4cc(Br)ccc4nc3OC)ccc2c1 (centres unmarked) [Compound 163]	14.7 (≈ 25.1 µM)	–	–
COc1nc2ccc(Br)cc2cc1C(c1ccccc1)C(O)(CCN(C)C)c1cccc(F)c1 (centres unmarked) [Compound 38]	–	–	IC90 (μg/ml) LMO 49594 [1]: 10.4 µg/mL (≈ 19.9 µM)
COc1nc2ccc(Br)cc2cc1C(c1ccccc1)C(O)(CCN(C)C)c1cccc(F)c1 (centres unmarked) [Compound 108]	–	13.1 (≈ 25 µM)	–

SMILES	IC90 [2] [µg/mL]	IC90 (μg/ml) SPN 6305 [2] [µg/mL]	also measured
COc1nc2ccc(Br)cc2cc1C(c1ccccc1)C(O)(CCN1CCN(C)CC1)c1cccc2ccccc12 (racemic) [Compound 149]	–	–	IC90 (μg/ml) LMO 49594 [1]: 12.2 µg/mL (≈ 20 µM)
COc1nc2ccccc2cc1C(c1ccccc1)C(O)(CCN(C)C)c1ccccc1 (centres unmarked) [Compound 41]	–	–	IC90 [1]: 17 µg/mL (≈ 39.9 µM)
COc1nc2ccc(Br)cc2cc1C(c1ccccc1)C(O)(CCN1CCCCC1)c1ccccc1 (centres unmarked) [Compound 47]	–	6.9 (≈ 12.6 µM)	–
COc1nc2cc(C)c(Br)cc2cc1C(c1ccccc1)C(O)(CCN(C)C)c1cc(F)cc(F)c1 (racemic) [Compound 227]	–	5.0 (≈ 9 µM)	–
COc1nc2ccc(Br)cc2cc1C(c1ccccc1)C(O)(CCN(C)C)c1cccs1 (centres unmarked) [Compound 20]	–	2.6 (≈ 5.08 µM)	–
COc1nc2ccc(Br)cc2cc1C(c1ccccc1)C(O)(CCN1CCOCC1)c1ccc2ccccc2c1 (racemic) [Compound 140]	–	–	IC90 (μg/ml) SMU 33402 [3]: 9.5 µg/mL (≈ 15.9 µM)
COc1nc2cc(C)c(Br)cc2cc1C(c1ccccc1)C(O)(CCN(C)C)c1cccc(F)c1 (racemic) [Compound 215]	–	–	IC90 (μg/ml) LMO 49594 [1]: 10.7 µg/mL (≈ 19.9 µM)
COc1nc2cc(C)c(Br)cc2cc1C(c1ccccc1)C(O)(CCN(C)C)c1cccc2ccccc12 (racemic) [Compound 226]	–	14.3 (≈ 25.1 µM)	–
COc1nc2ccc(Br)cc2cc1C(c1ccccc1)C(O)(CCN1CCCC1)c1ccc2ccccc2c1 (centres unmarked) [Compound 170]	26 (≈ 44.7 µM)	–	–
COc1nc2ccc(Br)cc2cc1C(c1ccc(Cl)cc1)C(O)(CCN(C)C)c1ccccc1 (centres unmarked) [Compound 37]	–	12.1 (≈ 22.4 µM)	–
CNCCC(O)(c1ccccc1)C(c1ccccc1)c1cc2cc(Br)ccc2nc1OC (centres unmarked) [Compound D]	4.9 (≈ 9.97 µM)	–	–
COc1nc2ccc(Br)cc2cc1C(c1ccccc1)C(O)(CCN(C)C)c1ccccc1 (centres unmarked) [Compound 4]	12.7 (≈ 25.1 µM)	–	–
COc1nc2ccc(Br)cc2cc1C(c1ccccc1)C(O)(CCN1CCN(c2ncccn2)CC1)c1ccc2ccccc2c1 (centres unmarked) [Compound 209]	15.1 (≈ 22.4 µM)	–	–
COc1nc2ccc(Br)cc2cc1C(c1ccccc1)C(O)(CC[N+](C)(C)[O-])c1ccccc1 (racemic) [Compound 58]	–	–	IC90 (μg/ml) SMU 33402 [3]: 5.9 µg/mL (≈ 11.3 µM); IC90 (μg/ml) SPY 8668 [4]: 8.3 µg/mL (≈ 15.9 µM)
COc1nc2ccc(Br)cc2cc1C(c1ccccc1)C(O)(CCN1CCSCC1)c1ccccc1 (racemic) [Compound 55]	–	0.6 (≈ 1.06 µM)	–
COc1nc2ccc(Br)cc2cc1C(c1ccccc1)C(O)(CCN(C)C)c1ccsc1 (centres unmarked) [Compound 24]	10.2 (≈ 19.9 µM)	–	–
COc1nc2ccc(Br)cc2cc1C(c1ccccc1)C(O)(CCN1CCCCC1)c1ccc2ccccc2c1 (centres unmarked) [Compound 128]	–	–	IC90 [1]: 9.4 µg/mL (≈ 15.8 µM)
COc1nc2ccc(Br)cc2cc1C(c1ccccc1)C(O)(CCN(C)C)c1ccc(F)c(F)c1 (centres unmarked) [Compound 196]	–	–	IC90 [3]: 10.8 µg/mL (≈ 19.9 µM)
COc1nc2ccc(Br)cc2cc1C(c1ccc(F)cc1)C(O)(CCN(C)C)c1cccc2ccccc12 (centres unmarked) [Compound 206]	12.8 (≈ 22.3 µM)	–	–
COc1nc2ccc(Br)cc2cc1C(c1ccccc1)C(O)(CCN1CCOCC1)c1ccc2ccccc2c1 (racemic) [Compound 139]	–	26.7 (≈ 44.7 µM)	IC90 (μg/ml) SMU 33402 [3]: 18.9 µg/mL (≈ 31.6 µM)
COc1nc2ccc(Br)cc2cc1C(c1ccc(Cl)cc1)C(O)(CCN(C)C)c1cccc2ccccc12 (centres unmarked) [Compound 73]	–	–	IC90 [3]: 11.8 µg/mL (≈ 20 µM); IC90 [4]: 14.8 µg/mL (≈ 25.1 µM)
